Tested on: 565232-114-T-J1-PDC complex spheroid viability
Assay: Anticancer human tumor 565232-114-T-J1-PDC patient-derived bladder carcinoma cell line growth inhibition [CLK]
Conditions: for IC50: curve of first compound; for viability, T/C: stronger effect = lower value
From the text: A high-throughput screen of multi-cell type tumor spheroids was designed to identify active combinations of […] and targeted small molecules. Complex spheroids include a stromal component modeled by human endothelial cells (HUVEC) and fibroblasts modeled by human mesenchymal stem cells (MSCs). The concentration ranges selected for each drug and investigational agent were based upon clinically achievable concentrations if the clinical Cmax of the agent was known.
Compounds. The drugs and investigational agents: cirtuvivint (SM08502; NSC835563), CC-671 (NSC850746), vemurafenib (NSC761431), tapotoclax (NSC804041), sotorasib (NSC818433), adagrasib (NSC831453), MRTX-1133 (NSC836407), BAY2416964 (NSC825713), copanlisib (NSC816437), inavolisib (NSC800729), abemaciclib (NSC768073), osimertinib (NSC779217), entinostat (NSC756642), eltanexor (KPT-8602, NSC794443), venetoclax (NSC766270), ceralasertib (NSC777638), bortezomib (NSC756655), olaparib (NSC753686), talazoparib (NSC767125), alisertib (NSC759677), peposertib (NSC802822), gemcitabine (NSC613327), 5-fluorouracil (NSC19893), SN-38 (NSC673596), oxaliplatin (NSC266046), paclitaxel (NSC125973), and doxorubicin (NSC123127), were obtained from the National Cancer Institute (NCI) Developmental Therapeutics Program Chemical Repository. The FDA-approved anticancer drug set is available from the Developmental Therapeutics Program at https://dtp.cancer.gov/organization/dscb/obtaining/available plates.htm. […] The stock solutions were prepared in dimethyl sulfoxide (DMSO, Sigma-Aldrich, St. Louis, MO, cat. D2650), except for the platinum complexes which were prepared in saline (Quality Biological, Gaithersburg, MD, cat. 114-055-101), at 800-fold the tested concentration and stored at -70 degrees C prior to their use. All drugs and investigational agents were tested over a range starting from a high concentration at or near the clinical Cmax and decreasing in half-log increments. If the clinical Cmax for an agent had not been determined, the highest concentration tested was 10 microM.
Cell Culture. All cells were maintained in an incubator at 37 degrees C and 5% CO2 with 95% humidity. The PDC lines were cultured according to standard operating procedures established by the NCI PDMR. Briefly, all PDCs were thawed and cultured in Matrigel-coated flasks prepared with a working solution of 1X Ham's F-12 nutrient mix, without supplementation (Invitrogen, Waltham, MA, cat. 11765054), 100 U/mL penicillin-streptomycin (Invitrogen, cat. 15140122), and 2.5% Matrigel (Corning Inc., Corning, NY, cat. 354248) for the first three passages. The 947758-054-R-J2-PDC line was cultured in 6B/Colon 1A media, which includes advanced DMEM/F-12 (Thermo Fisher Scientific, cat. 12634028), 10 mM HEPES (Thermo Fisher Scientific, cat. 15630080), 1X GlutaMAX supplement (Thermo Fisher Scientific, cat. 35050061), 0.1 mg/mL primocin (InvivoGen, cat. ant-pm-2), 10% defined fetal bovine serum, heat inactivated (HyClone Laboratories Inc., cat. SH30070.03HI), 1.25 mM N-Acetyl-L-cysteine (Sigma-Aldrich, cat. A9165), 10 mM nicotinamide (Sigma-Aldrich, cat. N0636), 1X B-27 supplement (Thermo Fisher Scientific, cat. 17504044), 1X N-2 supplement (Thermo Fisher Scientific, cat. 17502048), and 10 microM Y-27632 dihydrochloride (Tocris Bioscience, cat. 1254). The 876862-298-R-J1-PDC was cultured in 6E media, which includes all 6B/Colon 1A media components plus 50% L-WRN conditioned media (ATCC, cat. CRL-3276), 50 ng/mL recombinant human EGF recombinant protein (hEGF; Thermo Fisher Scientific, cat. PHG0311), 10 ng/mL recombinant human fibroblast growth factor 10 (hGFG-10; PeproTech, cat. 100-26), 1 ng/mL recombinant human fibroblast growth factor 2 (hFGF-2; PeproTech, cat. 100-18B), and 1 µM prostaglandin E2 (PGE2; Tocris, cat. 2296). The 227483-062-R1-J1-PDC line was cultured in Panc media, containing all 6E components except hFGF-2, with the addition of 500 nM SB-431542 (Selleckchem, cat. S1067) and 10 nM gastrin (Tocris, cat. 3006). […]
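Also: spheroids exposed to compounds for 7 days before readout.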
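For viability, T/C in this document: 100% = DMSO vehicle wells with luminescence normalized to vehicle control.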

C=CC(=O)Nc1cc(Nc2nccc(-c3cn(C)c4ccccc34)n2)c(OC)cc1N(C)CCN(C)C + CNC(=O)c1ccc(Nc2nc(OC3CCCC3)c3c(-c4ccc5nc(C)oc5c4)c[nH]c3n2)c(OC)c1
IC50 (second compound 0.0316 µM): > 300000 pM
IC50 (second compound 0.1 µM): 105000 pM
IC50 (second compound 0.316 µM): < 949 pM
IC50 (second compound 1 µM): < 949 pM
IC50 (second compound 3.16 µM): < 949 pM
IC50 (second compound 10 µM): < 949 pM
viability, T/C (second compound 0.0316 µM, first compound 0.000949 µM): 84.3%
viability, T/C (second compound 0.0316 µM, first compound 0.003 µM): 92.5%
viability, T/C (second compound 0.0316 µM, first compound 0.00949 µM): 75.5%
viability, T/C (second compound 0.0316 µM, first compound 0.03 µM): 86.7%
viability, T/C (second compound 0.0316 µM, first compound 0.0949 µM): 87.6%
viability, T/C (second compound 0.0316 µM, first compound 0.3 µM): 86.1%
viability, T/C (second compound 0.1 µM, first compound 0.000949 µM): 49.8%
viability, T/C (second compound 0.1 µM, first compound 0.003 µM): 53.3%
viability, T/C (second compound 0.1 µM, first compound 0.00949 µM): 51.1%
viability, T/C (second compound 0.1 µM, first compound 0.03 µM): 49.2%
viability, T/C (second compound 0.1 µM, first compound 0.0949 µM): 51.6%
viability, T/C (second compound 0.1 µM, first compound 0.3 µM): 40.5%
viability, T/C (second compound 0.316 µM, first compound 0.000949 µM): 28.5%
viability, T/C (second compound 0.316 µM, first compound 0.003 µM): 31.7%
viability, T/C (second compound 0.316 µM, first compound 0.00949 µM): 28.5%
viability, T/C (second compound 0.316 µM, first compound 0.03 µM): 31.1%
viability, T/C (second compound 0.316 µM, first compound 0.0949 µM): 35.7%
viability, T/C (second compound 0.316 µM, first compound 0.3 µM): 26.2%
viability, T/C (second compound 1 µM, first compound 0.000949 µM): 22.4%
viability, T/C (second compound 1 µM, first compound 0.003 µM): 27.3%
viability, T/C (second compound 1 µM, first compound 0.00949 µM): 21.9%
viability, T/C (second compound 1 µM, first compound 0.03 µM): 26.4%
viability, T/C (second compound 1 µM, first compound 0.0949 µM): 18.1%
viability, T/C (second compound 1 µM, first compound 0.3 µM): 22%
viability, T/C (second compound 3.16 µM, first compound 0.000949 µM): 18.5%
viability, T/C (second compound 3.16 µM, first compound 0.003 µM): 20.7%
viability, T/C (second compound 3.16 µM, first compound 0.00949 µM): 17.6%
viability, T/C (second compound 3.16 µM, first compound 0.03 µM): 21.4%
viability, T/C (second compound 3.16 µM, first compound 0.0949 µM): 15.2%
viability, T/C (second compound 3.16 µM, first compound 0.3 µM): 14.3%
viability, T/C (second compound 10 µM, first compound 0.000949 µM): 19.9%
viability, T/C (second compound 10 µM, first compound 0.003 µM): 18.8%
viability, T/C (second compound 10 µM, first compound 0.00949 µM): 16.1%
viability, T/C (second compound 10 µM, first compound 0.03 µM): 18.2%
viability, T/C (second compound 10 µM, first compound 0.0949 µM): 14%
viability, T/C (second compound 10 µM, first compound 0.3 µM): 11.7%

— PubChem BioAssay AID2060612 (Molecular Pharmacology Branch, DTP, NCI, 2025)
